Measurements: US10231954B2, “Neurodegenerative therapies” (LYTIX BIOPHARMA AS, priority 2014, dated 2019)

Key:
Type in all cases: biochemical
[1] = biological target: T1, PKD1 (Homo sapiens, UniProt Q15139); assay: Kinase profiling PKD1; conditions: 100 micromolar inhibitor concentration, 100 is no change; for remaining activity at 100 µM: read-out: residual kinase activity, PKD1
T1 sequence (Q15139 1-912): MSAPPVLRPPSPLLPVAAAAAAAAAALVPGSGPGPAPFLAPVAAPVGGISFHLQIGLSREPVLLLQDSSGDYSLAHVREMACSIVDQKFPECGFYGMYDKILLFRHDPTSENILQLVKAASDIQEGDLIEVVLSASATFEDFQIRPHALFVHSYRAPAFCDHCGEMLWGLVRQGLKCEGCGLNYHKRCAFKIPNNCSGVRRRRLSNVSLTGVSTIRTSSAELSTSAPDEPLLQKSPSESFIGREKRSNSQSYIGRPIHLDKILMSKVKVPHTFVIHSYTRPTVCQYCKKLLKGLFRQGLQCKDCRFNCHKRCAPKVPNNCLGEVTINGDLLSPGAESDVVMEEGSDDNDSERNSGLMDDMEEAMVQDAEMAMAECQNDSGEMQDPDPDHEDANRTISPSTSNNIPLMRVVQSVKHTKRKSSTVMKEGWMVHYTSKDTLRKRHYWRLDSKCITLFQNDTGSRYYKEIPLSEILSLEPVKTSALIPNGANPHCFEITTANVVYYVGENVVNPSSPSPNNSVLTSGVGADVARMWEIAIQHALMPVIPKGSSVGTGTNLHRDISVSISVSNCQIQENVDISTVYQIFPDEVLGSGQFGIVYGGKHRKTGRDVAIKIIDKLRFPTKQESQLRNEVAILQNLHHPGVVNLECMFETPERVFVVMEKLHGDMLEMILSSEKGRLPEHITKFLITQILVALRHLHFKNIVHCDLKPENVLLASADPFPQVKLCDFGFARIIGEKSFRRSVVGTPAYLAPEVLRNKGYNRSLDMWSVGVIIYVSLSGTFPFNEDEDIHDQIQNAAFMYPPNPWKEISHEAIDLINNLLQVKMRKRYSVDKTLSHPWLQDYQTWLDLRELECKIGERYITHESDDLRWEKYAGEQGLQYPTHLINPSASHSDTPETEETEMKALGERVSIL
Excerpt: (§1) Any value less that 25 is considered to be highly significant inhibition.

[2] = biological target: PAK4 (Homo sapiens, UniProt O96013); assay: Kinase profiling PAK4; conditions: 100 micromolar inhibitor concentration, 100 is no change; for remaining activity at 100 µM: read-out: residual kinase activity, PAK4
PAK4, sequence (O96013 whole entry, species assumed): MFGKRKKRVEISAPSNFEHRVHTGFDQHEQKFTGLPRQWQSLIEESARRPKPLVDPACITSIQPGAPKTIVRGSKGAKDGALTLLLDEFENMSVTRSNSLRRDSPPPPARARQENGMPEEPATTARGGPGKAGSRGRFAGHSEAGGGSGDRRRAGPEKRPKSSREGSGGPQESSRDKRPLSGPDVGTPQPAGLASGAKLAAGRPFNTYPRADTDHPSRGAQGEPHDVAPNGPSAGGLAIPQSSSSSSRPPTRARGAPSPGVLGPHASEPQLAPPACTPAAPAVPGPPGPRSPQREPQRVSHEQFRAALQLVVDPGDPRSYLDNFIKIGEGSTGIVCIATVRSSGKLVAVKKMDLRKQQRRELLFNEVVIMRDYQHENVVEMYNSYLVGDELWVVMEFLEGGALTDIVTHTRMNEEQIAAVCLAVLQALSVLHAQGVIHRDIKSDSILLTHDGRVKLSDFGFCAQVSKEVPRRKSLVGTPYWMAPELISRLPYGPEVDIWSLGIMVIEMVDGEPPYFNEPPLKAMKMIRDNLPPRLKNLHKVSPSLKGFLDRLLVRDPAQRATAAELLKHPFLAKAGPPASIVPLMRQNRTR
Excerpt: as §1

[3] = biological target: T2, MKK6 (Homo sapiens, UniProt P52564); assay: Kinase profiling MKK6; conditions: 100 micromolar inhibitor concentration, 100 is no change; for remaining activity at 100 µM: read-out: residual kinase activity, MKK6
T2 sequence (P52564 1-334): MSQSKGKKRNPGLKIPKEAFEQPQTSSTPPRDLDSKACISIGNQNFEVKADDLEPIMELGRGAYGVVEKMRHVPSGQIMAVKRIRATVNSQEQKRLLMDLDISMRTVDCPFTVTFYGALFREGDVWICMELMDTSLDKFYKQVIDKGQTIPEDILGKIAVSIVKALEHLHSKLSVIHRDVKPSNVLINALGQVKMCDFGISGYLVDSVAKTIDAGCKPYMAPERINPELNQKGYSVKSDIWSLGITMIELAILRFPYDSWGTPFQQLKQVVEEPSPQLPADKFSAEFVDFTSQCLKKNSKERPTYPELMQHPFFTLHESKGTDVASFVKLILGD
Excerpt: as §1

[4] = biological target: PKCa (Homo sapiens, UniProt P17252); assay: Kinase profiling PKCa; conditions: 100 micromolar inhibitor concentration, 100 is no change; for remaining activity at 100 µM: read-out: residual kinase activity, PKCa
Excerpt: as §1

[5] = biological target: T3, p38g MAPK (Homo sapiens, UniProt P53778); assay: Kinase profiling p38g MAPK; conditions: 100 micromolar inhibitor concentration, 100 is no change; for remaining activity at 100 µM: read-out: residual kinase activity, p38g MAPK
T3 sequence (P53778 1-367): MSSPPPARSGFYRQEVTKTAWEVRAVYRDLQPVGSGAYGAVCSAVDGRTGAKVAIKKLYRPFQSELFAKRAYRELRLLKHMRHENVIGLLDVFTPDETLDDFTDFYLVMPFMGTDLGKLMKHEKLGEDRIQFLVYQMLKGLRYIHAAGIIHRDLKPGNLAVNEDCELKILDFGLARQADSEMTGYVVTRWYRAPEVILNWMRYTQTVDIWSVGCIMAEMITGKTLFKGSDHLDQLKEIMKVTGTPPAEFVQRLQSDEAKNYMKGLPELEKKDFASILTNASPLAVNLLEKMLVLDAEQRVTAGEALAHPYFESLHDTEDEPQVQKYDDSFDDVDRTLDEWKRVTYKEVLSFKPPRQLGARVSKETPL
Excerpt: as §1

[6] = biological target: PKA (Homo sapiens, UniProt P17612); assay: Kinase profiling PKA; conditions: 100 micromolar inhibitor concentration, 100 is no change; for remaining activity at 100 µM: read-out: residual kinase activity, PKA
Excerpt: as §1

[7] = biological target: PKBa (Homo sapiens, UniProt P31749); assay: Kinase profiling PKBa; conditions: for remaining activity at 100 µM: read-out: residual kinase activity, PKBa; for residual kinase activity, PKBa: 100 micromolar inhibitor concentration, 100 is no change
PKBa, sequence (P31749 whole entry): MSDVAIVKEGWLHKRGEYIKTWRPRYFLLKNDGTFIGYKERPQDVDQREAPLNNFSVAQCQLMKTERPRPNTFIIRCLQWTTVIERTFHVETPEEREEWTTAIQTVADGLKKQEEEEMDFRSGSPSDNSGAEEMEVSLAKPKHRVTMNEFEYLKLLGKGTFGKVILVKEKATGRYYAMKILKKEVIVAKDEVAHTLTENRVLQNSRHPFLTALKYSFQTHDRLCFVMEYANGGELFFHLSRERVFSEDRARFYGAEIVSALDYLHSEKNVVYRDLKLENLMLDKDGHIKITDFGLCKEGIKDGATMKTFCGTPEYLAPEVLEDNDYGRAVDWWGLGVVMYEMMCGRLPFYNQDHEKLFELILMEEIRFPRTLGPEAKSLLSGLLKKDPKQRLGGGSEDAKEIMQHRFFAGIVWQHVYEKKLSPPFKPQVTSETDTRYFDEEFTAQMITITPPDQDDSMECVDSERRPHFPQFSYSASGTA
Excerpt: as §1

[8] = biological target: ERK2 (Homo sapiens, UniProt P28482); assay: Kinase profiling ERK2; conditions: 100 micromolar inhibitor concentration, 100 is no change; for remaining activity at 100 µM: read-out: residual kinase activity, ERK2
ERK2, sequence (P28482 whole entry, species assumed): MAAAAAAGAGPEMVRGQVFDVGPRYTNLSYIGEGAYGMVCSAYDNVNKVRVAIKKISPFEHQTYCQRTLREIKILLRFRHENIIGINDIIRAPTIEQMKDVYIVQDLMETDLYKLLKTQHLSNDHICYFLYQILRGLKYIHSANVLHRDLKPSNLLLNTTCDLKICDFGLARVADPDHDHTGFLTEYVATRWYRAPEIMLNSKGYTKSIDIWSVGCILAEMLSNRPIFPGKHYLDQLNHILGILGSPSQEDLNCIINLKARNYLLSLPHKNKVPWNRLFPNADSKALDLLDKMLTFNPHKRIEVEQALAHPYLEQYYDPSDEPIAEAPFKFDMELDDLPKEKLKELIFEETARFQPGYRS
Excerpt: as §1

[9] = biological target: CAMKKb (Homo sapiens, UniProt Q96RR4); assay: Kinase profiling CAMKKb; conditions: 100 micromolar inhibitor concentration, 100 is no change; for remaining activity at 100 µM: read-out: residual kinase activity, CAMKKb
CAMKKb, sequence (Q96RR4 whole entry, species assumed): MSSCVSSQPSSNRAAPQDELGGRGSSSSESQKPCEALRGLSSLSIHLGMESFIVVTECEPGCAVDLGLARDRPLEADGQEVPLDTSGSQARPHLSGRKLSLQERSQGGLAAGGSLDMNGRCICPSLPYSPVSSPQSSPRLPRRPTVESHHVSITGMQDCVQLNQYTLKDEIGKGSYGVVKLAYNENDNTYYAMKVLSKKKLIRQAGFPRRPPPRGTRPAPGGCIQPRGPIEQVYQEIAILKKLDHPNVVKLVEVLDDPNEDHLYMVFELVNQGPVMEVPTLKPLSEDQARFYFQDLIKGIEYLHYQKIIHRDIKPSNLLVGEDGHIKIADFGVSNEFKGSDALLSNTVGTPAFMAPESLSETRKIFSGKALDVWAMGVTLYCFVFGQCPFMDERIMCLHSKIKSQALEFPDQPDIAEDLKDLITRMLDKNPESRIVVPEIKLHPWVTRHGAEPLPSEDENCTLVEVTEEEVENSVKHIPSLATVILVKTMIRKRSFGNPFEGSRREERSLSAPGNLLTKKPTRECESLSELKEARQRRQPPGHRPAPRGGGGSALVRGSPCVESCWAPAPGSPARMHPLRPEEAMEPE
Excerpt: as §1

[10] = biological target: CAMK1 (Homo sapiens, UniProt Q14012); assay: Kinase profiling CAMK1; conditions: 100 micromolar inhibitor concentration, 100 is no change; for remaining activity at 100 µM: read-out: residual kinase activity, CAMK1
CAMK1, sequence (Q14012 whole entry, species assumed): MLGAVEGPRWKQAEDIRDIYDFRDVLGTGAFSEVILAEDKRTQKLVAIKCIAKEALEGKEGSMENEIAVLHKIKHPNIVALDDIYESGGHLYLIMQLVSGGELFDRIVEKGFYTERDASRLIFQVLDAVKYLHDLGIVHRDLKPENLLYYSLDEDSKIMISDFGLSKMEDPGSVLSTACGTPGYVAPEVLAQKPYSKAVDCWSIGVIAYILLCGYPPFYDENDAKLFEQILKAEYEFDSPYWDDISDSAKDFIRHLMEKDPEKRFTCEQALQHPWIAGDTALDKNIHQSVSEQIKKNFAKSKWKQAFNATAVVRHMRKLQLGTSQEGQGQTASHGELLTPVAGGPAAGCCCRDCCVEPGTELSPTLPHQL
Excerpt: as §1

[11] = biological target: BTK (Homo sapiens, UniProt Q06187); assay: Kinase profiling BTK; conditions: 100 micromolar inhibitor concentration, 100 is no change; for remaining activity at 100 µM: read-out: residual kinase activity, BTK
BTK, sequence (Q06187 whole entry, species assumed): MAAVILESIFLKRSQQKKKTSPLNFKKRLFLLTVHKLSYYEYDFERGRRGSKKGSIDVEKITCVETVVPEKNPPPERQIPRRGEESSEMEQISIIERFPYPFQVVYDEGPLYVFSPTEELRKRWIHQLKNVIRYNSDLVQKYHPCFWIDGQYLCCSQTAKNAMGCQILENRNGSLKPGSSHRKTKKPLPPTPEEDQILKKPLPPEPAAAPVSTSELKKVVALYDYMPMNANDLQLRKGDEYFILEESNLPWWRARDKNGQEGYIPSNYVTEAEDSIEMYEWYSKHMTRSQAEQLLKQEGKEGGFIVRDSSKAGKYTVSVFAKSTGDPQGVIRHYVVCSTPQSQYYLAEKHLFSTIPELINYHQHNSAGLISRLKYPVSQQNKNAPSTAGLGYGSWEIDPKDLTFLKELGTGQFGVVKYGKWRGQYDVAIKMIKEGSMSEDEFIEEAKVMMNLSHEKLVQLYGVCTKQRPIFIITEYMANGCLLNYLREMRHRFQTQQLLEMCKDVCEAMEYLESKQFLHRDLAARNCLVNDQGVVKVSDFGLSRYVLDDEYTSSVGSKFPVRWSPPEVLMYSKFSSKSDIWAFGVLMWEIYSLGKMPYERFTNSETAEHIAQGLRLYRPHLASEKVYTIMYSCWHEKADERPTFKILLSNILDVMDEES
Excerpt: as §1

[12] = system: CK2; assay: Kinase profiling CK2; conditions: 100 micromolar inhibitor concentration; 100 is no change
Excerpt: as §1

[13] = biological target: EPH-A2 (Homo sapiens, UniProt P29317); assay: Kinase profiling EPH-A2; conditions: 100 micromolar inhibitor concentration, 100 is no change; for remaining activity at 100 µM: read-out: residual kinase activity, EPH-A2
EPH-A2, sequence (P29317 24-976, species assumed): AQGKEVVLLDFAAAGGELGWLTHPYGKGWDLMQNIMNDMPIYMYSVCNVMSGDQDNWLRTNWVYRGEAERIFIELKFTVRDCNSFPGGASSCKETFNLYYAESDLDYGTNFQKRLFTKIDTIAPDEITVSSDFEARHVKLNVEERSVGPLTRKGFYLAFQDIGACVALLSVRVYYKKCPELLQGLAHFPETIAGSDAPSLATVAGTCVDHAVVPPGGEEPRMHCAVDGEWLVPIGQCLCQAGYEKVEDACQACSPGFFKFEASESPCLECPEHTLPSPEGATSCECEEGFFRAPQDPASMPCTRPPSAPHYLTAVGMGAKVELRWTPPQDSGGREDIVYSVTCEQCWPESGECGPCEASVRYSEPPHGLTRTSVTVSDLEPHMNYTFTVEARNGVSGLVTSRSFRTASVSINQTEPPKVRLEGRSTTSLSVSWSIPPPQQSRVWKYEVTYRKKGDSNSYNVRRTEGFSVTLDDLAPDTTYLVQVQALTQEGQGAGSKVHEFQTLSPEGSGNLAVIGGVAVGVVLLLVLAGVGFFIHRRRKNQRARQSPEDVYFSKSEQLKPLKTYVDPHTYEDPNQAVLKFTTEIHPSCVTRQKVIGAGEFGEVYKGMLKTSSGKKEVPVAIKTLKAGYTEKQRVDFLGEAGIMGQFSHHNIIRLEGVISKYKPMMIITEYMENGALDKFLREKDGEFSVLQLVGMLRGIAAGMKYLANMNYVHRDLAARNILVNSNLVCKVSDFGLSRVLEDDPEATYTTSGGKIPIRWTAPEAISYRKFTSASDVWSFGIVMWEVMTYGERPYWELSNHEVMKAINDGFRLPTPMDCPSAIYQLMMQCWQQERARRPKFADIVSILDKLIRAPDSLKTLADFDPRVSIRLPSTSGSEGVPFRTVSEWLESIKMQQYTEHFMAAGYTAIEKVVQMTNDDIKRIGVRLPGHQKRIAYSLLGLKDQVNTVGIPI
Excerpt: as §1

[14] = biological target: PLK1 (Homo sapiens, UniProt P53350); assay: Kinase profiling PLK1; conditions: 100 micromolar inhibitor concentration, 100 is no change; for remaining activity at 100 µM: read-out: residual kinase activity, PLK1
PLK1, sequence (P53350 whole entry, species assumed): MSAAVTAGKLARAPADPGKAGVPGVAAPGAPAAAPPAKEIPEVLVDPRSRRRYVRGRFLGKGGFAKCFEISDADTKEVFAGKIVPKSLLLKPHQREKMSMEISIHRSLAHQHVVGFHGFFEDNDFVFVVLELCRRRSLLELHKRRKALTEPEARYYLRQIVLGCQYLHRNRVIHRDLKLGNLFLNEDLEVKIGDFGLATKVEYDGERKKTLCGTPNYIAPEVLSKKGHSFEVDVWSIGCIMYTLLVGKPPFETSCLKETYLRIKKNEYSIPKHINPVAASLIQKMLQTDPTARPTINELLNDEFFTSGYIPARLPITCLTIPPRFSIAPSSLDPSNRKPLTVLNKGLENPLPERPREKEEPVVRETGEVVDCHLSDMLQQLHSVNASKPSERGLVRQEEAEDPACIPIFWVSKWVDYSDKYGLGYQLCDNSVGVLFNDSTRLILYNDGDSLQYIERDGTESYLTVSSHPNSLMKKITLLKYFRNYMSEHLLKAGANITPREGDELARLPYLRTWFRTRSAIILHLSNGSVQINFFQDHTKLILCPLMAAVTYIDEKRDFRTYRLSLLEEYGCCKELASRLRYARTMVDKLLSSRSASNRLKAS
Excerpt: as §1

Compound | remaining activity at 100 µM [1] | remaining activity at 100 µM [2] | remaining activity at 100 µM [3] | remaining activity at 100 µM [4] | remaining activity at 100 µM [5] | remaining activity at 100 µM [6] | residual kinase activity, CK2 [12] | residual kinase activity, PKD1 [1] | residual kinase activity, PAK4 [2] | residual kinase activity, MKK6 [3] | residual kinase activity, PKCa [4] | residual kinase activity, p38g MAPK [5] | residual kinase activity, PKA [6] | residual kinase activity, PKBa [7] | residual kinase activity, ERK2 [8] | residual kinase activity, CAMKKb [9] | residual kinase activity, CAMK1 [10] | residual kinase activity, BTK [11] | residual kinase activity, EPH-A2 [13] | residual kinase activity, PLK1 [14] | also measured
CC(=O)Nc1nc2cc(C(F)(F)F)ccc2s1 [Compound 03-73] | 83% | 71% | 120% | 111% | 93% | 124% | 105 | – | – | – | – | – | – | – | – | – | – | – | – | – | remaining activity at 100 µM [7]: 106%; remaining activity at 100 µM [8]: 108%; remaining activity at 100 µM [9]: 65%; remaining activity at 100 µM [10]: 89%; remaining activity at 100 µM [11]: 93%; remaining activity at 100 µM [13]: 99%; remaining activity at 100 µM [14]: 91%
CC(=O)Nc1nc2cc(C)ccc2s1 [Compound 03-76] | – | – | – | – | – | – | 75 | 89 | 101 | 113 | 94 | 92 | 105 | 104 | 96 | 71 | 90 | 92 | 93 | 90 | –
CC(=O)Nc1nc2cc(F)ccc2s1 [Compound 03-77] | 66% | 97% | 118% | 101% | 77% | 95% | 81 | – | – | – | – | – | – | – | – | – | – | – | – | – | remaining activity at 100 µM [7]: 95%; remaining activity at 100 µM [8]: 99%; remaining activity at 100 µM [9]: 74%; remaining activity at 100 µM [10]: 106%; remaining activity at 100 µM [11]: 105%; remaining activity at 100 µM [13]: 106%; remaining activity at 100 µM [14]: 78%
O=C(Nc1nc2ccc(O)cc2s1)c1ccncc1 [Compound 08-42] | – | – | – | – | – | – | 50 | 63 | 69 | 101 | 81 | 87 | 91 | 90 | 73 | 68 | 68 | 59 | 77 | 74 | –
O=C(Nc1nc2ccc(O)cc2s1)c1cccnc1 [Compound 08-44] | – | – | – | – | – | – | 19 | 54 | 64 | 107 | 67 | 77 | 92 | 83 | 75 | 59 | 42 | 54 | 81 | 63 | –
